Test results as given in PubChem BioAssay (NCI).
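Where inhibition never reached the appropriate level, the endpoint shown equals the highest concentration tested. Otherwise, values were interpolated linearly from a five-concentration, 48-hour dose response in 96-well plates. Definition used: TGI = concentration required for complete inhibition of growth.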

What was measured:
Experiment in all cases: growth of human tumour cells (NCI), 48 h
[1] = test system: OVCAR-8 ovarian
[2] = test system: BT-549 breast
[3] = test system: SN12C renal
[4] = test system: SK-MEL-28 melanoma
[5] = test system: EKVX NSCLC
[6] = test system: KM12 colon
[7] = test system: HT29 colon
[8] = test system: SK-MEL-5 melanoma
[9] = test system: OVCAR-5 ovarian
[10] = test system: OVCAR-3 ovarian
[11] = test system: A498 renal

Structure (SMILES)	TGI [1]	TGI [2]	TGI [3]	TGI [4]	TGI [5]	TGI [6]	TGI [7]	TGI [8]	TGI [9]	TGI [10]	TGI [11]
CCOC(=O)C(NC(=O)c1cccc(Cl)c1)(Nc1cccc(C)c1)C(F)(F)F (centres undefined)	61 µM	26.1 µM	50.8 µM	35.1 µM	63.1 µM	30.1 µM	27.8 µM	30.9 µM			
CCOC(=O)/C=C/CCC(C)(C)COC(C)=O	> 10 µM		> 10 µM	> 10 µM	> 10 µM	> 10 µM	> 10 µM	> 10 µM	> 10 µM	> 10 µM	
C=CN(C=C)C(=O)Cn1cc(-c2ccccc2)nn1	> 100 µM	> 100 µM	> 100 µM	> 100 µM	> 100 µM	> 100 µM	> 100 µM	> 100 µM	> 100 µM		
c1cncc(CSc2nc3ccccc3nc2-c2cccs2)c1	> 100 µM		> 100 µM	> 100 µM	> 100 µM	> 100 µM	> 100 µM	> 100 µM	> 100 µM	83.3 µM	
CCOC(=O)c1csc(NC(=O)CCN2CCCC2)n1	> 100 µM			> 100 µM	> 100 µM	> 100 µM	> 100 µM	> 100 µM	> 100 µM	> 100 µM	
O=C1c2cc3c(cc2CC12Cc1ccc4c(c1C2=O)CCC4)CCC3 (centres undefined)	> 100 µM			> 100 µM	> 100 µM		> 100 µM	> 100 µM	> 100 µM	> 100 µM	> 100 µM
CC(C)(C)c1ccnc(N=C2N=C(Nc3cc(C(C)(C)C)ccn3)c3ccccc32)c1	41.7 µM		> 100 µM	86.8 µM	> 100 µM	> 100 µM	75 µM		> 100 µM	47.4 µM	53.4 µM
N#C/C(C(=O)NCc1ccccc1)=C(/N)N1CCCC1	> 100 µM		> 100 µM	> 100 µM	> 100 µM	> 100 µM	> 100 µM	> 100 µM	> 100 µM	> 100 µM	> 100 µM
CC(C)(C)N=NC(C)(C)N=C=O	> 100 µM		> 100 µM	> 100 µM	> 100 µM	> 100 µM	> 100 µM	> 100 µM	> 100 µM	> 100 µM	> 100 µM
CCCn1cc2c3c(cccc31)C1C=C(C)CN(C)C1C2 (centres undefined)	66.5 µM		60.9 µM	49.9 µM	48 µM	58 µM	42.7 µM	38.3 µM	57 µM	52.6 µM	37.8 µM
Nc1c(N2CCOCC2)c(=O)nc2[nH]/c(=C\c3ccccc3O)c(=O)n12	> 100 µM		> 100 µM	> 100 µM	> 100 µM	> 100 µM	> 100 µM	> 100 µM	> 100 µM		> 100 µM
CC(C)=C/C(CC(O)(C(F)(F)F)C(F)(F)F)=N\O	> 100 µM		> 100 µM	> 100 µM	> 100 µM	> 100 µM	> 100 µM	> 100 µM	> 100 µM		> 100 µM
O=[N+]([O-])c1ccc(-c2csc(=[N+]3CCCCC3)s2)cc1	> 100 µM		> 100 µM	> 100 µM	> 100 µM	> 100 µM	> 100 µM	17.8 µM	62.6 µM	> 100 µM	63.6 µM
CN(C)CCCNC(=O)N/N=C/c1ccccc1	> 100 µM		> 100 µM	> 100 µM		> 100 µM	> 100 µM	> 100 µM		> 100 µM	> 100 µM
COc1ccc(C(=O)/C=C/SC(=NC#N)SC)cc1	46.8 µM		75.2 µM	96.7 µM	> 100 µM	63.9 µM	49.5 µM	39 µM	47.1 µM	37.2 µM	60.7 µM
CCCCNC(=O)Cn1c2ccc(Br)cc2c2nc3ccccc3nc21	> 100 µM		> 100 µM	> 100 µM		> 100 µM	> 100 µM	> 100 µM	> 100 µM	> 100 µM	> 100 µM
O=C1Nc2cc(F)ccc2C1=O	> 100 µM		> 100 µM	> 100 µM	> 100 µM	> 100 µM	> 100 µM	> 100 µM	> 100 µM		> 100 µM
COc1cc(N=Nc2ccc(OC)c(S(=O)(=O)O)c2)c(C)cc1N=Nc1ccc(/C=C/c2ccc(N=[N+]([O-])c3ccc(/C=C/c4ccc(N=Nc5cc(C)c(N=Nc6ccc(OC)c(S(=O)(=O)O)c6)cc5OC)cc4S(=O)(=O)O)c(S(=O)(=O)O)c3)cc2S(=O)(=O)O)c(S(=O)(=O)O)c1	> 100 µM		> 100 µM	> 100 µM	> 100 µM	> 100 µM	> 100 µM	> 100 µM	> 100 µM	> 100 µM	> 100 µM
